Laboratory results from US6914045B2, “Glycopeptide antibiotics” (Wyeth Holdings Corporation, priority 2001, dated 2005).
Converted amounts (≈) assume the structure as drawn. Blank lines part the entries; values can stand above or below the compound they belong to.

Tests used:
[1] = anatomic pathology (histopathology of heart and kidney) in mice; assay type: in vivo; details: CD-1 mice, 20 mg/kg intravenously daily for 9 days, necropsy day 10, microscopic histopathology
Method: Samples of tissues from necropsied mice were formalin-fixed, paraffin-embedded, sectioned, stained with hematoxylin and eosin, and examined microscopically. Histopathologic findings were recorded. These findings were subjectively graded on a scale corresponding to slight, mild, moderate, marked and severe as compared to untreated controls.

[2] = test system: Escherichia coli; test: in vitro antibacterial evaluation, MIC by broth dilution; assay type: cell-based; details: 18 hours at 35° C.
In short: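 MIC is the lowest antibiotic concentration (tested 64-0.06 μg/mL) preventing growth of a 5×10^5 CFU/mL inoculum. Determined by broth dilution in Mueller-Hinton II medium following NCCLS standard M7-A2.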

[3] = test system: Staphylococcus sp.; test: as above; assay type: cell-based; details: broth dilution, 18 hours at 35° C.; for MIC Staphylococcus aureus (ATCC 29213): strain ATCC 29213; for MIC Staphylococcus aureus (GC 1131): strain GC 1131; for MIC Staphylococcus aureus (GC 3051): strain GC 3051; for MIC Staphylococcus aureus (GC 3053): strain GC 3053; for MIC Staphylococcus aureus (GC 4541): strain GC 4541; for MIC Staphylococcus aureus (GC 4542): strain GC 4542; for MIC Staphylococcus aureus-SMITH (GC 4543): strain GC 4543; for MIC Staphylococcus aureus (GC 4544): strain GC 4544; for MIC Staphylococcus aureus (GC 4545): strain GC 4545; for MIC Staphylococcus haemolyticus (GC 4546): strain GC 4546; for MIC Coagulase Negative Staphylococcus (GC 4547): strain GC 4547; for MIC Coagulase Negative Staphylococcus (GC 4548): strain GC 4548; for MIC Coagulase Negative Staphylococcus (GC 4549): strain GC 4549; for MIC Coagulase Negative Staphylococcus (GC 4551): strain GC 4551; for MIC Coagulase Negative Staphylococcus (GC 6257): strain GC 6257
In short: (§1)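 Step 1: dilute antibiotic across 64-0.06 μg/mL in Muller-Hinton II […]. Step 2: inoculate at 5×10^5 CFU/mL.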

[4] = test system: Enterococcus sp.; test: as above; assay type: cell-based; details: broth dilution, 18 hours at 35° C.
In short: as §1

[5] = test system: Streptococcus sp.; test: as above; assay type: cell-based; details: broth dilution, 18 hours at 35° C.
In short: as §1

[6] = Enterococcus faecalis (GC 4553)

MIC Escherichia coli (ATCC 25922) [2]: >128 µg/mL
MIC Escherichia coli (GC 4559) [2]: >128 µg/mL
MIC Escherichia coli (GC 4560) [2]: >128 µg/mL
MIC Staphylococcus aureus (ATCC 29213) [3]: >128 µg/mL
MIC Staphylococcus aureus (GC 1131) [3]: >128 µg/mL
MIC Staphylococcus aureus (GC 3051) [3]: >128 µg/mL
MIC Staphylococcus aureus (GC 3053) [3]: >128 µg/mL
MIC Staphylococcus aureus (GC 4541) [3]: >128 µg/mL
MIC Staphylococcus aureus (GC 4542) [3]: >128 µg/mL
MIC Staphylococcus aureus-SMITH (GC 4543) [3]: >128 µg/mL
MIC Staphylococcus aureus (GC 4544) [3]: >128 µg/mL
MIC Staphylococcus aureus (GC 4545) [3]: >128 µg/mL
MIC Coagulase Negative Staphylococcus (GC 4547) [3]: >128 µg/mL
MIC Coagulase Negative Staphylococcus (GC 4548) [3]: >128 µg/mL
MIC Coagulase Negative Staphylococcus (GC 4549) [3]: >128 µg/mL
MIC Coagulase Negative Staphylococcus (GC 4551) [3]: >128 µg/mL
MIC Coagulase Negative Staphylococcus (GC 6257) [3]: >128 µg/mL
MIC Enterococcus avium (GC 4558) ([4]; Enterococcus avium (GC 4558)): 128 µg/mL (≈ 93.7 µM)
MIC Enterococcus faecalis (ATCC 29212) ([4]; Enterococcus faecalis (ATCC 29212)): >128 µg/mL
MIC Enterococcus faecalis (GC 4552) ([4]; Enterococcus faecalis (GC 4552)): >128 µg/mL
MIC Enterococcus faecalis (GC 4553) [4, 6]: >128 µg/mL
MIC Enterococcus faecalis (GC 4554) ([4]; Enterococcus faecalis (GC 4554)): >128 µg/mL
MIC Enterococcus faecalis (GC 6189) ([4]; Enterococcus faecalis (GC 6189)): >128 µg/mL
MIC Enterococcus faecium (GC 2243) ([4]; Enterococcus faecium (GC 2243)): >128 µg/mL
MIC Enterococcus faecium (GC 4556) ([4]; Enterococcus faecium (GC 4556)): >128 µg/mL
MIC Enterococcus faecium (GC 4557) ([4]; Enterococcus faecium (GC 4557)): >128 µg/mL
MIC Enterococcus avium (GC 4558) [4]: 128 µg/mL (≈ 93.7 µM)
MIC Enterococcus faecalis (ATCC 29212) [4]: >128 µg/mL
MIC Enterococcus faecalis (GC 2242) [4]: >128 µg/mL
MIC Enterococcus faecalis (GC 2691) [4]: >128 µg/mL
MIC Enterococcus faecalis (GC 3059) [4]: >128 µg/mL
MIC Enterococcus faecalis (GC 4552) [4]: >128 µg/mL
MIC Enterococcus faecalis (GC 4553) [4]: >128 µg/mL
MIC Enterococcus faecalis (GC 4554) [4]: >128 µg/mL
MIC Enterococcus faecalis (GC 6189) [4]: >128 µg/mL
MIC Enterococcus faecium (GC 2243) [4]: >128 µg/mL
MIC Enterococcus faecium (GC 4556) [4]: >128 µg/mL
MIC Enterococcus faecium (GC 4557) [4]: >128 µg/mL
MIC Enterococcus faecalis (GC 2242) ([4]; strain GC 2242): >128 µg/mL
MIC Enterococcus faecalis (GC 2691) ([4]; strain GC 2691): >128 µg/mL
MIC Enterococcus faecalis (GC 3059) ([4]; strain GC 3059): >128 µg/mL
MIC Streptococcus agalactiae (GC 4564) [5]: 128 µg/mL (≈ 93.7 µM)
MIC Streptococcus pneumoniae (ATCC 6301) [5]: >128 µg/mL
MIC Streptococcus pneumoniae (GC 1894) [5]: 128 µg/mL (≈ 93.7 µM)
MIC Streptococcus pneumoniae (GC 4565) [5]: >128 µg/mL
MIC Streptococcus pyogenes (GC 4563) [5]: >128 µg/mL
MIC Streptococcus pneumoniae (ATCC 6301) ([5]; strain ATCC 6301): >128 µg/mL
MIC Streptococcus pneumoniae (GC 1894) ([5]; strain GC 1894): 128 µg/mL (≈ 93.7 µM)
MIC Streptococcus pyogenes (GC 4563) ([5]; strain GC 4563): >128 µg/mL
MIC Streptococcus agalactiae (GC 4564) ([5]; strain GC 4564): 128 µg/mL (≈ 93.7 µM)
MIC Streptococcus pneumoniae (GC 4565) ([5]; strain GC 4565): >128 µg/mL
Structure (SMILES): CN=C1N(C)CC(C(O)C2NC(=O)C(Cc3ccc(OC4OC(CO)C(OC5OC(CO)C(O)C(O)C5O)C(O)C4O)cc3)NC(=O)C(C(C)c3ccccc3)NC(=O)CNC(=O)C(CO)NC(=O)C(C(O)C3CN(C)C(=NC)N3C3OC(CO)C(O)C(O)C3O)NC2=O)N1C (stereo not drawn) [Example 64, Cyclo[glycyl-β-methylphenylalanyl-O-(4-O-hexopyranosylhexopyranosyl)tyrosyl-3-(1,3-dimethyl-2-(methylimino)imidazolidin-4-yl)seryl-3-[3-hexopyranosyl-1-methyl-2-(methylimino)imidazolidin-4-yl]-serylseryl]]
Anatomical Pathology (Day 10), Heart [1]: 0
Anatomical Pathology (Day 10), Kidney [1]: 0
MIC Staphylococcus haemolyticus (GC 4546) [3]: >128 µg/mL

Structure (SMILES): CN=C1N(C)CC(C(O)C2NC(=O)C(Cc3ccc(OC4OC(CO)C(OC5OC6COC7(OC6C(O)C5O)C5CC6CC(C5)CC7C6)C(O)C4O)cc3)NC(=O)C(C(C)c3ccccc3)NC(=O)CNC(=O)C(CO)NC(=O)C(C(O)C3CN(C)C(=NC)N3C3OC(CO)C(O)C(O)C3O)NC2=O)N1C (stereo not drawn) [Example 81, Cyclo[glycyl-β-methylphenylalanyl-O-[4-O-[4,6-O-(2-adamantylidene)hexopyranosyl]hexopyranosyl]tyrosyl-3-[1,3-dimethyl-2-(methylimino)imidazolidin-4-yl]seryl-3-[3-hexopyranosyl-1-methyl-2-(methylimino)imidazolidin-4-yl]serylseryl]]
Anatomical Pathology (Day 10), Heart [1]: 0
Anatomical Pathology (Day 10), Kidney [1]: 0
MIC Escherichia coli (ATCC 25922) [2]: >128 µg/mL
MIC Escherichia coli (GC 4559) [2]: >128 µg/mL
MIC Escherichia coli (GC 4560) [2]: 128 µg/mL (≈ 85.5 µM)
MIC Staphylococcus haemolyticus (GC 4546) [3]: >128 µg/mL
MIC Enterococcus avium (GC 4558) [4]: 128 µg/mL (≈ 85.5 µM)
MIC Enterococcus faecalis (ATCC 29212) [4]: >128 µg/mL
MIC Enterococcus faecalis (GC 2242) [4]: >128 µg/mL
MIC Enterococcus faecalis (GC 2691) [4]: >128 µg/mL
MIC Enterococcus faecalis (GC 3059) [4]: >128 µg/mL
MIC Enterococcus faecalis (GC 4552) [4]: >128 µg/mL
MIC Enterococcus faecalis (GC 4553) [4]: 128 µg/mL (≈ 85.5 µM)
MIC Enterococcus faecalis (GC 4554) [4]: >128 µg/mL
MIC Enterococcus faecalis (GC 6189) [4]: >128 µg/mL
MIC Enterococcus faecium (GC 2243) [4]: >128 µg/mL
MIC Enterococcus faecium (GC 4556) [4]: >128 µg/mL
MIC Enterococcus faecium (GC 4557) [4]: 128 µg/mL (≈ 85.5 µM)
MIC Streptococcus agalactiae (GC 4564) [5]: 128 µg/mL (≈ 85.5 µM)
MIC Streptococcus pneumoniae (ATCC 6301) [5]: >128 µg/mL
MIC Streptococcus pneumoniae (GC 1894) [5]: 128 µg/mL (≈ 85.5 µM)
MIC Streptococcus pneumoniae (GC 4565) [5]: >128 µg/mL
MIC Streptococcus pyogenes (GC 4563) [5]: >128 µg/mL

Structure (SMILES): CC(c1ccccc1)C1NC(=O)CNC(=O)C(CO)NC(=O)C(C(O)C2CNC(=NCc3ccccc3)N2C2OC(CO)C(O)C(O)C2O)NC(=O)C(C(O)C2CNC(=N)N2)NC(=O)C(Cc2ccc(OC3OC(CO)C(OC4OC5COC6(OC5C(O)C4O)C4CC5CC(C4)CC6C5)C(O)C3O)cc2)NC1=O (stereo not drawn) [Example 76, Cyclo[glycyl-β-methylphenylalanyl-O-[4-O-[4,6-O-(2-adamantylidene)hexopyranosyl]hexopyranosyl]tyrosyl-3-(2-iminoimidazolidin-4-yl)seryl-3-[2-(benzylimino)-3-hexopyranosylimidazolidin-4-yl]serylseryl]]
Anatomical Pathology (Day 10), Heart [1]: 0
Anatomical Pathology (Day 10), Kidney [1]: ++
MIC Escherichia coli (GC 4560) [2]: 2 to 4 µg/mL
MIC Staphylococcus aureus (ATCC 29213) [3]: 2 to 8 µg/mL
MIC Staphylococcus aureus (GC 1131) [3]: 4 to 8 µg/mL
MIC Staphylococcus aureus (GC 3051) [3]: 2 to 8 µg/mL
MIC Staphylococcus aureus (GC 3053) [3]: 2 to 8 µg/mL
MIC Staphylococcus aureus (GC 4541) [3]: 2 to 4 µg/mL
MIC Staphylococcus aureus (GC 4542) [3]: 2 to 8 µg/mL
MIC Staphylococcus aureus-SMITH (GC 4543) [3]: 1 to 4 µg/mL
MIC Staphylococcus aureus (GC 4544) [3]: 4 to 8 µg/mL
MIC Staphylococcus aureus (GC 4545) [3]: 2 to 8 µg/mL
MIC Staphylococcus haemolyticus (GC 4546) [3]: 2 to 4 µg/mL
MIC Coagulase Negative Staphylococcus (GC 4547) [3]: 2 to 4 µg/mL
MIC Coagulase Negative Staphylococcus (GC 4548) [3]: 2 to 4 µg/mL
MIC Coagulase Negative Staphylococcus (GC 4549) [3]: 2 to 4 µg/mL
MIC Coagulase Negative Staphylococcus (GC 4551) [3]: 2 to 8 µg/mL
MIC Coagulase Negative Staphylococcus (GC 6257) [3]: 0.5 to 2 µg/mL
MIC Enterococcus avium (GC 4558) ([4]; Enterococcus avium (GC 4558)): 2 to 8 µg/mL
MIC Enterococcus faecalis (GC 4553) [4, 6]: 4 to 8 µg/mL
MIC Enterococcus faecium (GC 2243) ([4]; Enterococcus faecium (GC 2243)): 2 to 8 µg/mL
MIC Enterococcus faecium (GC 4557) ([4]; Enterococcus faecium (GC 4557)): 1 to 2 µg/mL
MIC Enterococcus avium (GC 4558) [4]: 2 to 8 µg/mL
MIC Enterococcus faecalis (ATCC 29212) [4]: 4 to 16 µg/mL
MIC Enterococcus faecalis (GC 2242) [4]: 4 to 16 µg/mL
MIC Enterococcus faecalis (GC 2691) [4]: 4 to 16 µg/mL
MIC Enterococcus faecalis (GC 3059) [4]: 4 to 32 µg/mL
MIC Enterococcus faecalis (GC 4552) [4]: 4 to 16 µg/mL
MIC Enterococcus faecalis (GC 4553) [4]: 4 to 8 µg/mL
MIC Enterococcus faecalis (GC 4554) [4]: 4 to 32 µg/mL
MIC Enterococcus faecalis (GC 6189) [4]: 4 to 16 µg/mL
MIC Enterococcus faecium (GC 2243) [4]: 2 to 8 µg/mL
MIC Enterococcus faecium (GC 4556) [4]: 4 to 16 µg/mL
MIC Enterococcus faecium (GC 4557) [4]: 1 to 2 µg/mL
MIC Streptococcus agalactiae (GC 4564) [5]: 0.25 to 2 µg/mL
MIC Streptococcus pneumoniae (ATCC 6301) [5]: <0.12 to 1 µg/mL
MIC Streptococcus pneumoniae (GC 1894) [5]: <0.06 to 0.25 µg/mL
MIC Streptococcus pneumoniae (GC 4565) [5]: 0.25 to 4 µg/mL
MIC Streptococcus pyogenes (GC 4563) [5]: 0.25 to 2 µg/mL
